Measured values published in patent US8207180B2, “Tricyclic indoles and (4,5-dihydro) indoles” (Nerviano Medical Sciences S.R.L., priority 2006, dated 2012).
Structures can show the parent of a compound that is named as a salt.

Key:
Cdc7/Dbf4 = Cdc7/Dbf4 (Homo sapiens, UniProt O00311); test: Inhibition assay of Cdc7/Dbf4 activity (Dowex resin capture, 33P-ATP, MCM2 substrate); type: biochemical; conditions: MCM2 6 μM, ATP 2 μM, enzyme 2 nM, 60 min rt
Procedure: Inhibition Assay of Cdc7 Activity
The inhibiting activity of putative Cdc7 inhibitors and the potency of selected compounds is determined through a method of assay based on the use of Dowex resin capture technology.
The assay consists of the transfer of radioactivity labeled phosphate moiety by the kinase to an acceptor substrate. The resulting 33P-labeled product is separated from unreacted tracer, transferred into a scintillation cocktail and light emitted is measured in a scintillation counter.
The inhibition assay of Cdc7/Dbf4 activity is performed according to the following protocol.
The MCM2 substrate is trans-phosphorylated by the Cdc7/Dbf4 complex in the presence of ATP traced with γ^33-ATP. The reaction is stopped by addition of Dowex resin in the presence of formic acid. Dowex resin particles capture unreacted γ^33-ATP and drag it to the bottom of the well while ^33P phosphorylated MCM2 substrate remains in solution. The supernatant is collected, transferred into Optiplate plates and the extent of substrate phosphorylation is evaluated by β counting.
The inhibition assay of Cdc7/Dbf4 activity was performed in 96 wells plate according to the following protocol.
To each well of the plate were added: • 10 μl test compound (10 increasing concentrations in the nM to uM range to generate a dose-response curve). The solvent for test compounds contained 3% DMSO. (final concentration 1%) • 10 μl substrate MCM2 (6 μM final concentration), a mixture of cold ATP (2 μM final concentration) and radioactive ATP (1/5000 molar ratio with cold ATP). • 10 μl enzyme (Cdc7/Dbf4, 2 nM final concentration) that started the reaction. The buffer of the reaction consisted in 50 mM HEPES pH 7.9 containing 15 mM MgCl2, 2 mM DTT, 3 uM NaVO3, 2 mM glycerophosphate and 0.2 mg/ml BSA. • After incubation for 60 minutes at room temperature, the reaction was stopped by adding to each well 150 μl of Dowex resin in the presence of 150 mM formic acid. After other 60 min incubation, 50 μl of suspension were withdrawn and transferred into 96-well OPTIPLATEs containing 150 μl of MicroScint 40 (Packard); after 5-10 minutes shaking the plates were read for 1 min in a Packard TOP-Count radioactivity reader.
IC50 determination: inhibitors were tested at different concentrations ranging from 0.0005 to 10 μIM. Experimental data were analyzed by the computer program Assay Explorer using the four parameter logistic equation: y=bottom+(top−bottom)/(1+10^((log IC50−x)*slope)) where x is the logarithm of the inhibitor concentration, y is the response; y starts at bottom and goes to top with a sigmoid shape.

AKT-1 = AKT-1 (Homo sapiens, UniProt P31749); test: AKT kinase inhibition assay: Dowex technique (AKT1, Aktide substrate); type: biochemical; conditions: AKT1 5 nM, Aktide 30 μM, ATP 132 μM, 60 min rt
AKT-1, sequence (P31749 whole entry): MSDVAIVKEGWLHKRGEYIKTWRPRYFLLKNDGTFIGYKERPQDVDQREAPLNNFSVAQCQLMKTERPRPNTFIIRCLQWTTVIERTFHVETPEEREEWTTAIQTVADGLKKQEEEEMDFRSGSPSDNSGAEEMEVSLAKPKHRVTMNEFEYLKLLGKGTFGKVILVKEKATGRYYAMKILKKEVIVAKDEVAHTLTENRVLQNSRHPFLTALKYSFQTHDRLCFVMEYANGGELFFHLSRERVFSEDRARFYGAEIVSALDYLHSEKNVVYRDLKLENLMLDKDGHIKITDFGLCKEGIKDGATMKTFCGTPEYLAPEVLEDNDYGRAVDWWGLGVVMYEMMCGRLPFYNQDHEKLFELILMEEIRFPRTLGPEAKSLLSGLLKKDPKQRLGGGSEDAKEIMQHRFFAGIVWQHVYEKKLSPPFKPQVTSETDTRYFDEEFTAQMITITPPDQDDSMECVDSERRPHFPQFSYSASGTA
Text: Method for AKT Kinase Inhibition Assay: Dowex Technique
General Principle for Kinase Inhibition Assays
Specific peptide or protein substrates are trans-phosphorylated by their specific serine -threonine or tyrosine kinase, in the presence of ATP traced with ^33Pγ-ATP, and in the presence of their own optimal buffer and cofactors.
At the end of the phosphorylation reaction, more than 98% cold ATP and radioactive ATP is captured by an excess of the ion exchange dowex resin; the resin then settles down to the bottom of the reaction plate by gravity.
Supernatant, containing the phosphorylated substrate, is subsequently withdrawn and transferred into a counting plate, then evaluated by β-counting.
• TRIS 50 mM, pH 7.5 • MgCl2 10 mM • DTT 1 mM • NaVO3 […] • BSA 0.2 mg/ml • Assay conditions (final concentrations) for AKT1 • Enzyme concentration (AKT1)=5 nM • Substrate concentration (Aktide, 14 residues peptide, from PRIMM)=30 μM • ATP=132 μM • ^33P-γ-ATP=0.88 nM Robotized Dowex Assay
The “test” mixture consisted of: • 1) 3× Enzyme mix (done in Kinase Buffer 3×), 5 μl/well • 2) 3× substrate and ATP mix (done in DDH2O), together with ^33P-γ-ATP, 5 μl/well • 3) 3× test compounds (diluted into DDH2O-3% DMSO)-5 μl/well Dilution of Compounds
Test compounds are received as 100% DMSO solution at the indicated concentrations: • i—for % inhibition studies, individual dilution plates at 1 mM, 100 μM and 10 μM are prepared in 100% DMSO, then diluted at a 3× concentration (30, 3 and 0.3 μM) in DDH2O, 3% DMSO. A Multimek 96 (Beckman) is used for dilutions and compound pipetting into the test plates • ii—for IC50 determination, compounds are received as 1 mM, 100% DMSO solutions, plated into the first column of a microtiter plate (A1 to G1), 100 μl.
Well H1 is left empty for the internal standard inhibitor, staurosporine.
A Biomek 2000 (Beckman) is used for serial 1:3 dilutions in water, 3% DMSO, from column A1 to A10 and for all the seven compounds in the plate. In a standard experiment, the highest concentration of all compounds is 30 μM, then diluted in the final test mixture down to 10 μM.
384-well plates, V bottom (test plates) are prepared with 5 μl of the compound dilution (3×) and then placed onto a PlateTrak 12 robotized station (Perkin Elmer; the robot has one 384-tips pipetting head for starting the assay plus one 96-tips head for dispensing the resin) together with one reservoir for the Enzyme mix (3×) and one for the ATP mix (3×).
At the start of the run, the robot aspirates 5 μl of ATP mix, makes an air gap inside the tips (3 μl) and aspirates 5 μl of AKT mix. The following dispensation into the plates allows the kinase reaction to start upon 3 cycles of mixing, done by the robot itself.
The robot incubates the plates for 60 minutes at room temperature, and then stops the reaction by pipetting 70 μl of dowex resin suspension into the reaction mix. Three cycles of mixing are done immediately after the addition of the resin.
Another mixing cycle is performed after all the plates are stopped, this time using normal tips: the plates are then allowed to rest for about one hour in order to maximize ATP capture. At this point, 20 μl of the supernatant are transferred into 384-Optiplates (Perkin-Elmer), with 70 μl of Microscint 40 (Perkin-Elmer); after 5 min of orbital shaking the plates are read on a Perkin-Elmer Top Count radioactivity counter.
Data are analysed by an internally customized version of the SW package “Assay Explorer” that provides either % inhibition for primary assays or sigmoidal fittings of the ten-dilutions curves for IC50 determination, for the secondary assays/hit confirmation routines.

Cdc7/Dbf4, sequence (O00311 whole entry): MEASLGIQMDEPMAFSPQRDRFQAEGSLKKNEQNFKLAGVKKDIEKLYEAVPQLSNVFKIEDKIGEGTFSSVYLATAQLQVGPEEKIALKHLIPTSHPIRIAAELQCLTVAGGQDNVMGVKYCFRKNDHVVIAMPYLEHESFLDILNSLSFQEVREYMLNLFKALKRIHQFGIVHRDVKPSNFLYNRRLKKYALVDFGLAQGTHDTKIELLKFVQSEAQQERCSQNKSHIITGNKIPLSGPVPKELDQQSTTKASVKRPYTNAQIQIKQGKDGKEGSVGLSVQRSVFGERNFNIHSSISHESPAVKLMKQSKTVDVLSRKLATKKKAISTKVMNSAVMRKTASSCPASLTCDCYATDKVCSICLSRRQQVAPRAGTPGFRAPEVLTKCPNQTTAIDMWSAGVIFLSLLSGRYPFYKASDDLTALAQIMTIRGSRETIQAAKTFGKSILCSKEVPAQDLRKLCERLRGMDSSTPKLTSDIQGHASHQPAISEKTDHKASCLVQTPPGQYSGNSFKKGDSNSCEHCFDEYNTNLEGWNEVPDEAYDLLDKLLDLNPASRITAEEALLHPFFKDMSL
Cdc7/Dbf4, sequence (Q9UBU7 whole entry partner): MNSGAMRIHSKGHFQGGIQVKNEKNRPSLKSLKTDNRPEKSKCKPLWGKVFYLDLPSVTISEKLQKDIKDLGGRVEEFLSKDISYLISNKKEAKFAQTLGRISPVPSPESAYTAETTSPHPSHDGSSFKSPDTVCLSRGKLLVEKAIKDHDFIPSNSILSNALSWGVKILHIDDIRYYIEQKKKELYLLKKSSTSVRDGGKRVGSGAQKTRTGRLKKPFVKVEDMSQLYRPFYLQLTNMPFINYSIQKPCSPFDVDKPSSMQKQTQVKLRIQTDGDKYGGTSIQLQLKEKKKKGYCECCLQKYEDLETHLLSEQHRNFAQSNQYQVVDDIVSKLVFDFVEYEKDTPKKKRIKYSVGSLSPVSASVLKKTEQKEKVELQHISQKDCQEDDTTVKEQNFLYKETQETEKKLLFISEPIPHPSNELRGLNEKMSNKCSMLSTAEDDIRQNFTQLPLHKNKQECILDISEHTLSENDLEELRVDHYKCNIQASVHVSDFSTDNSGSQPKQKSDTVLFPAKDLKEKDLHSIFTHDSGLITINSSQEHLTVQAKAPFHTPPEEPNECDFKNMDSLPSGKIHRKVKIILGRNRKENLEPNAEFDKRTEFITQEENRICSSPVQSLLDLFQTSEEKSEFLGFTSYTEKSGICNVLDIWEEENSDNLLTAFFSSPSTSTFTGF

Row | SMILES | IC50 (Cdc7/Dbf4) [nM] | IC50 (AKT-1) [nM]
1 | CC(C)(C)OC(=O)NC[C@H](Cc1ccccc1)NC(=O)c1c[nH]c2c1CCc1cnccc1-2 [E11, tert-Butyl {(2S)-2-[(4,5-dihydro-1H-pyrrolo[2,3-f]isoquinolin-3-ylcarbonyl)amino]-3-phenylpropyl}carbamate] | – | < 500
2 | CC(C)(C)OC(=O)NC[C@H](Cc1ccccc1)NC(=O)c1cn(CC(F)(F)F)c2c1CCc1cnccc1-2 [E12, Tert-Butyl [(2S)-3-phenyl-2-({[1-(2,2,2-trifluoroethyl) -4,5-dihydro-1H-pyrrolo[2,3-f]isoquinolin-3-yl]carbonyl}amino)propyl]carbamate] | – | < 500
3 | NC[C@H](Cc1ccccc1)NC(=O)c1cn(CC(F)(F)F)c2c1CCc1cnccc1-2 [E14, N-[(1S)-2-Amino-1-benzylethyl]-1-(2,2,2-trifluoroethyl)-4,5-dihydro-1H-pyrrolo[2,3-f]isoquinoline-3-carboxamide] | – | < 500
4 | NC[C@H](Cc1ccccc1)NC(=O)c1c[nH]c2c1CCc1cnccc1-2 [E15, N-[(1S)-2-Amino-1-benzylethyl]-4,5-dihydro-1H-pyrrolo[2,3-f]isoquinoline-3-carboxamide] | – | < 500
5 | NC[C@H](Cc1ccccc1)NC(=O)c1cn(CCO)c2c1CCc1cnccc1-2 [E21, N-[(1S)-2-Amino-1-benzylethyl]-1-(2-hydroxyethyl)-4,5-dihydro-1H-pyrrolo[2,3-f]isoquinoline-3-carboxamide] | – | < 500
6 | CCOC(=O)c1c(Br)[nH]c2c1CCc1cnccc1-2 [F1, 2-Bromo-4,5-dihydro-1H-pyrrolo[2,3-f]isoquinoline-3-carboxylic acid ethyl ester hydrobromide] | < 1000 | –
7 | O=Cc1c(-c2ccc(N3CCOCC3)cc2)[nH]c2c1ccc1cnccc12 [G7, 2-(4-Morpholin-4-yl-phenyl)-1H-pyrrolo[2,3-f]isoquinoline-3-carbaldehyde] | < 1000 | –
8 | O=C(O)c1cc2c([nH]1)-c1ccncc1CC2 [L2, 4,5-Dihydro-1H-pyrrolo[2,3-f]isoquinoline-2-carboxylic acid] | < 1000 | –
9 | NC[C@H](Cc1ccccc1)NC(=O)c1cc2c([nH]1)-c1ccncc1CC2 [L6, N-[(1S)-2-Amino-1-benzylethyl]-4,5-dihydro-1H-pyrrolo[2,3-f]isoquinoline-2-carboxamide] | – | < 500
10 | NC[C@H](Cc1ccccc1)NC(=O)c1cc2c(n1CC(F)(F)F)-c1ccncc1CC2 [L9, N-[(1S)-2-Amino-1-benzylethyl]-1-(2,2,2-trifluoroethyl)-4,5-dihydro-1H-pyrrolo[2,3-f]isoquinoline-2-carboxamide] | – | < 500
11 | Cn1c2c(c(C(N)=O)c1-c1ccccc1)CCc1cnc(N)nc1-2 [N4, 8-Amino-1-methyl-2-phenyl-4,5-dihydro-1H-1,7,9-triaza-cyclopenta[a]naphthalene-3-carboxylic acid amide] | < 1000 | –

The remaining lines, values ahead:

Row | IC50 (Cdc7/Dbf4) [nM] | IC50 (AKT-1) [nM] | SMILES
12 | < 100 | – | Cn1cc(C(=O)O)c2ccc3[nH]ncc3c21 [B2, 1-Methyl-1,6-dihydro-1,6,7-triaza-as-indacene-3-carboxylic acid]
13 | < 100 | – | Cn1cc(C(N)=O)c2ccc3n[nH]cc3c21 [B3, 1-Methyl-1,7-dihydro-1,6,7-triaza-as-indacene-3-carboxylic acid amide]
14 | < 100 | – | Cn1c(Cl)c(C(N)=O)c2ccc3[nH]ncc3c21 [C1, 2-Chloro-1-methyl-1,6-dihydro-1,6,7-triaza-as-indacene-3-carboxylic acid amide]
15 | < 100 | – | Cn1c(-c2ccccc2)c(C(N)=O)c2ccc3n[nH]cc3c21 [C2, 1-Methyl-2-phenyl-1,7-dihydro-1,6,7-triaza-as-indacene-3-carboxylic acid amide]
16 | < 1000 | – | O=C(O)c1c[nH]c2c1CCc1cnccc1-2 [E6, 4,5-Dihydro-1H-pyrrolo[2,3-f]isoquinoline-3-carboxylic acid]
17 | < 1000 | – | O=C(O)c1cn(CC(F)(F)F)c2c1CCc1cnccc1-2 [E7, 1-(2,2,2-Trifluoroethyl)-4,5-dihydro-1H-pyrrolo[2,3-f]isoquinoline-3-carboxylic acid]
18 | < 1000 | – | NC(=O)c1c[nH]c2c1CCc1cnccc1-2 [E10, 4,5-Dihydro-1H-pyrrolo[2,3-f]isoquinoline-3-carboxylic acid amide]
19 | < 100 | – | Cc1ccccc1-c1c(C(N)=O)c2c(n1C)-c1ccncc1CC2 [F5, 1-Methyl-2-o-tolyl-4,5-dihydro-1H-pyrrolo[2,3-f]isoquinoline-3-carboxylic acid amide]
20 | < 100 | – | NC(=O)c1c(-c2ccccc2)[nH]c2c1ccc1cnccc12 [G3, 2-Phenyl-1H-pyrrolo[2,3-f]isoquinoline-3-carboxylic acid amide]
21 | < 100 | – | O=C(O)c1c(-c2ccc(Br)cc2)[nH]c2c1ccc1cnccc12 [G5, 2-(4-Bromo-phenyl)-1H-pyrrolo[2,3-f]isoquinoline-3-carboxylic acid]
22 | < 100 | – | NC(=O)c1c(-c2ccc(Br)cc2)[nH]c2c1ccc1cnccc12 [G6, 2-(4-Bromo-phenyl)-1H-pyrrolo[2,3-f]isoquinoline-3-carboxylic acid amide]
23 | < 100 | – | O=Cc1c(-c2ccncc2)[nH]c2c1ccc1cnccc12 [H1, 2-Pyridin-4-yl-1H-pyrrolo[2,3-f]isoquinoline-3-carbaldehyde]
24 | < 100 | – | NC(=O)c1c(-c2ccncc2)[nH]c2c1ccc1cnccc12 [H3, 2-Pyridin-4-yl-1H-pyrrolo[2,3-f]isoquinoline-3-carboxylic acid amide]
25 | < 100 | – | NC(=O)c1c(-c2ccccc2)[nH]c2c1ccc1cnc(N)nc12 [N9, 8-Amino-2-phenyl-1H-1,7,9-triaza-cyclopenta[a]naphthalene-3-carboxylic acid amide]
26 | < 100 | – | Cn1c(-c2ccccc2)c(C(N)=O)c2ccc3cnc(N)nc3c21 [N10, 8-Amino-1-methyl-2-phenyl-1H-1,7,9-triaza-cyclopenta[a]naphthalene-3-carboxylic acid amide]
